Measured values published in US9205161B2, “Disinfecting composition comprising a chloramine bleaching agent for removable dental appliances” (LMA Solutions, Inc., priority 2014, dated 2015).

Test system: BL21 E. coli cells
Test: Bacterial kill after contact in LB broth, plating on LB agar
Assay type: cell-based
Conditions: 15 min exposure at 37° C.; for % Reduction Product / CFU/ml Product / Log reduction Product: MES 25 μM, NaDCC 0.9 mg/ml
Method: A working suspension of BL21 E. coli cells in LB broth (1.16×10^8 CFU/ml) was contacted for 15 min at 37° C. with either 1×PBS buffer (control), 2-(N-morpholino)ethanesulfonic acid (“MES”) (final conc. of 25 μM or 0.0049 mg/ml), Sodium Dichloroisocyanurate (“NaDCC”) (final conc. of 0.9 mg/ml), or MES (final conc. of 25 μM or 0.0049 mg/ml)+NaDCC (final conc. of 0.9 mg/ml). Lysogeny broth (LB), a nutritionally rich medium, is primarily used for the growth of bacteria.
After contact, ten-fold serial dilutions from 1:10 to 1:10^6 were prepared using D/E neutralizing broth and an aliquot at each dilution (100 μl) was plated onto an LB agar plate and incubated for 20 hours at 37° C.
The plate shown in FIG. 1A corresponds to treatments with MES-only at a plating dilution of 1:1×10^4. The plate shown in FIG. 1B corresponds to treatments with NaDCC-only at a plating dilution of 1:10. The plate shown FIG. 1C corresponds to treatment with MES+NaDCC at plating dilution of 1:10.

| Compound | Plate count (CFU) (plate dilution 1:1.0E+01, 100 ul plated) | % Reduction Product | CFU/ml Product | Log reduction Product | Plate count (CFU) (plate dilution 1:1.0E+05, 100 ul plated) |
| --- | --- | --- | --- | --- | --- |
| O=c1nc([O-])n(Cl)c(=O)n1Cl.[Na+] [NaDCC only, Sodium Dichloroisocyanurate] | 331 CFU | 99.9715% | 3.31E+04 CFU/ml | 3.54 | – |
| O=S(=O)(O)CCN1CCOCC1 [MES only, 2-(N-morpholino)ethanesulfonic acid] | – | −10.3448% | 1.28E+08 CFU/ml | −0.04 | 128 CFU |
